Test results published in patent US20260083864A1, “CONTRAST AGENTS FOR USE IN DIAGNOSTIC COMPUTED TOMOGRAPHY IMAGING” (Bayer Aktiengesellschaft, priority 2022, published 2026).

How the values were obtained:
[1] = Water solubility in aqueous buffer; details: aqueous buffer 10 mM Tris-HCl, pH 7.4, 20° C.
Protocol: The solid compounds were added stepwise to the buffer solution. More substance is added once all the suspended material is dissolved until an equilibrium between undissolved and dissolved substance is reached. The suspension was mixed using a shaker (Heidolph Reax 2000) and treated 5 min in an ultrasound bath (Bandelin, Sonorex Super RK255H).

OATP1B1 = biological target: T1, OATP1B1 (Homo sapiens, UniProt Q9Y6L6); assay: Uptake into stable transfected OATP1B1 HEK 293 cells; format: cell-based; details: for Uptake into OATP1B1-HEK 293 cells: 40 min incubation, relative to RC1 (Gd-EOB-DTPA); for Inhibition Rifampicine: uptake into OATP1B1-HEK 293 cells
T1 sequence (Q9Y6L6 1-691): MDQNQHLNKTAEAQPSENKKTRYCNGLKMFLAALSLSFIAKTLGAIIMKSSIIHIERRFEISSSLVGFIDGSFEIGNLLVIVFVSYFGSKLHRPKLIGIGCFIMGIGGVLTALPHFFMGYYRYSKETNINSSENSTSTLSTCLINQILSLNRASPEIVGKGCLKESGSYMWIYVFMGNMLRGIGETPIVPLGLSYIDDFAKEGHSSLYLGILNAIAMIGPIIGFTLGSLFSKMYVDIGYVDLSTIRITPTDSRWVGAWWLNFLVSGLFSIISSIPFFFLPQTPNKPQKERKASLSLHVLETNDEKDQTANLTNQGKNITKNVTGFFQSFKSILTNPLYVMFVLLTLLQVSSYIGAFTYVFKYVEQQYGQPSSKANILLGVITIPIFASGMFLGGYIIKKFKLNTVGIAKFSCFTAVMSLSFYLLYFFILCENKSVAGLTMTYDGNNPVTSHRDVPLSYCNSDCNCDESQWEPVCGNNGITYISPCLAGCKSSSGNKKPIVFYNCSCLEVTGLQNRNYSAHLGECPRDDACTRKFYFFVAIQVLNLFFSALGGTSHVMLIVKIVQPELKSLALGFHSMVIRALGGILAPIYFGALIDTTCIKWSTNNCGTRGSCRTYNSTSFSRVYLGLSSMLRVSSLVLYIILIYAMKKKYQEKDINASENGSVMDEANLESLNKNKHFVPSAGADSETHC
Protocol: (§1) Cryopreserved cells were shortly thawed in water bath and diluted in 10 mL warm culture medium (37° C.). After medium change the cells were grown for 3d in a 25 cm^2 cell culture flask. After 3 to 5d the cells were transferred into 75 cm^2 flasks. […] All test items were prepared in transport buffer at a final concentration of 100 M from stock solutions (180 to 500 mM concentration). The OATP1B1 HEK 293 cells were incubated with test solutions (test item in transport buffer 500 L) for 40 min on a thermoshaker without shaking (PHMP, Fa. Grant Bio). Triplicates were performed for each test item. After incubation the cells were washed with 2 mL of cold PBS (+) buffer (Dulbeccos PBS+, Fa. Gibco). […] As a reference standard Gd-EOB-DTPA (gadoxetate) is used in the same well plate.

[2] = Partition coefficient (log P butanol/buffer); format: physicochemical; details: 1-butanol / 50 mM Tris-HCl, pH 7.4, room temperature
OATP1B3 = biological target: T2, OATP1B3 (Homo sapiens, UniProt Q9NPD5); assay: Uptake into stable transfected OATP1B3 HEK 293 cells; format: cell-based; details: for Uptake into OATP1B3-HEK 293 cells: 40 min incubation, relative to RC1 (Gd-EOB-DTPA); for Inhibition Rifampicine: uptake into OATP1B3-HEK 293 cells
T2 sequence (Q9NPD5 1-702): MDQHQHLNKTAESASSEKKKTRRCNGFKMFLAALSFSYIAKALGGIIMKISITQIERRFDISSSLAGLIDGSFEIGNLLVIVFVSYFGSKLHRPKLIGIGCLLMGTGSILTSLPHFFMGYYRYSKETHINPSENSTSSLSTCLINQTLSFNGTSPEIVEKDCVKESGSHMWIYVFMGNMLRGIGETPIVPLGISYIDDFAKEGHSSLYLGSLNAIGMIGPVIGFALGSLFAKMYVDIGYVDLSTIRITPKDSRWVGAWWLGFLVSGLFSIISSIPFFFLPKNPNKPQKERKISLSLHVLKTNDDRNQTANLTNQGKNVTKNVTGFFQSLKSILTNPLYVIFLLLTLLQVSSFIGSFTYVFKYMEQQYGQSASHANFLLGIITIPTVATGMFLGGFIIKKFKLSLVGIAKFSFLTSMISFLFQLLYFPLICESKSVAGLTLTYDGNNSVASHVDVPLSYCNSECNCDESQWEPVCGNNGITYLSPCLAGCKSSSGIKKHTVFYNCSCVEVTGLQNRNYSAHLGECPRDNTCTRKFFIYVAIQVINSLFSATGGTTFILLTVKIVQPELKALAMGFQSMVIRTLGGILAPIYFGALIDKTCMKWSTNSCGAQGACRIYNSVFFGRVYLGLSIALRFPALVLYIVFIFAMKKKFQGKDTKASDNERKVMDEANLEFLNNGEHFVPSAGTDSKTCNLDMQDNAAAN
Protocol: as §1, with “100 µM” for “100 M”, “The OATP1B3” for “The OATP1B1”, “500 μL)” for “500 L)”

[3] = system: freshly isolated rat hepatocytes; assay: Uptake into freshly isolated rat hepatocytes; details: for Uptake rat hepatocytes: 100 μmol Gd/L, 10 min, 37° C., relative to RC1 (Gd-EOB-DTPA); for Inhibition Rifampicine: rat hepatocyte uptake, test item and Rifampicine 1:1, each 100 μM
Protocol: After incubation the adherent hepatocytes were washed once with 37° C. Hepes carbonate transport buffer (500 μL/well). The test items and RC1 were prepared from stock solutions (180 to 500 mM concentration) in Hepes carbonate transport buffer at pH 7.4 to reach a final concentration of 100 μmol Gd/L. The specific uptake of the test item or RC1 into rat hepatocytes via OATP1B1 and OATP1B3 was challenged using a known OATP1B1/1B3 inhibitor (Rifampicine, Fa. Sigma R3501, test item and inhibitor 1:1 each 100 μM final concentration). The prepared rat hepatocyte plates were incubated with test solutions (500 μL/well) at 37° C. for 10 min using a thermoshaker (Fa. Grant Bio, PHMP). Triplicates were performed for each test item. After incubating the cells were washed once with cold PBS buffer (Fa. Gibco, Dulbeccos PBS (+)). After washing the intact hepatocytes were lysed by addition of 500 μL cold 0.01% Triton-X 100 in Millipore water for 1 h. […] As a reference standard RC1 is used in the same well plate. The hepatocyte uptake of the test compound is calculated relative to RC1 (resulting in the unit % of RC1).

[4] = Relaxivity measurements at 1.41 T in human plasma; format: physicochemical; details: 37° C., normalized to Gd
Protocol: (§2) The T1 relaxation times were determined using the standard inversion recovery (IR) method with a fixed relaxation delay of at least 5×T1. The variable inversion time (TI) was calculated automatically by the standard software of the MiniSpec mq60 (8 steps). The T2 measurements were performed by using a Carr-Purcell-Meiboom-Gill (CPMG) pulse sequence, applying a relaxation delay of at least 5×T1.
Each relaxivity measurement was performed using three different Gd concentrations (3 concentrations between 0.05 and 2 mM).
(§3) The relaxivities n (where i=1, 2) were calculated based on the measured relaxation rates Ri in water and plasma: […]

[5] = Relaxivity measurements at 1.41 T in water; format: physicochemical; details: 37° C., normalized to Gd
Protocol: as §2, with “Relaxivity measurements at 1.41 T were performed using a MiniSpec mq60 spectrometer (Bruker Analytik, Karlsruhe, Germany) operating at a resonance frequency of 60 MHz and a temperature of 37° C. The T1” for “The T1”
Each relaxivity measurement was performed using three different Gd concentrations (3 concentrations between 0.05 and 2 mM). […] Human plasma preparation: For each experiment fresh blood was taken from a volunteer using 10 mL citrate-tubes (Sarstedt S-Monovette 02.1067.001, 10 mL, Citrate). The 10 mL citrate-tubes were carefully inverted 10 times to mix blood and anticoagulant and centrifuged for 15 min at 1811 g at RT (Eppendorf, Centrifuge 5810R).
as §3

Compound | Solubility [1] [mM] | Uptake into OATP1B1-HEK 293 cells (OATP1B1) | Inhibition Rifampicine (OATP1B1) [% inhibition] | Log P (partition coefficient butanol/buffer) [2] | Uptake into OATP1B3-HEK 293 cells (OATP1B3) | Inhibition Rifampicine (OATP1B3) [% inhibition] | Uptake rat hepatocytes [3] | Inhibition Rifampicine [3] [% inhibition] | r1 human plasma [4] [L/mmol/s] | r1 water [5] [L/mmol/s]
CCCCOc1ccc(CCCC[C@@H](C(=O)O)N2CCN([C@@H](CO)C(=O)[O-])CCN([C@@H](CO)C(=O)[O-])CCN([C@@H](CO)C(=O)[O-])CC2)cc1.[Gd+3] [Example 9, gadolinium (2S,2′S,2″S)-2,2′,2″-{10-[(1S)-5-(4-butoxyphenyl)-1-carboxypentyl]-1,4,7,10-tetraazacyclododecane-1,4,7-triyl}tris(3-hydroxypropanoate)] | 2 | 498 % of RC1 | 73 | 0.26 | 124 % of RC1 | 95 | 54 % of RC1 | 46 |  | 
CCOCCOCCOCCOc1ccc(C[C@@H](C(=O)O)N2CCN(CC(=O)[O-])CCN(CC(=O)[O-])CCN(CC(=O)[O-])CC2)cc1.[Gd+3] [Example 11, gadolinium 2,2′,2″-{10-[(1S)-1-carboxy-2-(4-{2-[2-(2-ethoxyethoxy)ethoxy]ethoxy}phenyl)ethyl]-1,4,7,10-tetraazacyclododecane-1,4,7-triyl}triacetate] |  | 154 % of RC1 | 40 | −1.68 | 16 % of RC1 | 73 | 39 % of RC1 | 93 | 6.3 | 4.3
CCOCCOCCOCCOc1ccc(C[C@H](C(=O)O)N2CCN(CC(=O)[O-])CCN(CC(=O)[O-])CCN(CC(=O)[O-])CC2)cc1.[Gd+3] [Example 12, gadolinium 2,2′,2″-{10-[(1R)-1-carboxy-2-(4-{2-[2-(2-ethoxyethoxy)ethoxy]ethoxy}phenyl)ethyl]-1,4,7,10-tetraazacyclododecane-1,4,7-triyl}triacetate] |  | 86 % of RC1 | 0 | −1.68 | 24 % of RC1 | 87 | 53 % of RC1 | 97 | 6.6 | 4.3
CCOc1ccc(CCCC[C@@H](C(=O)O)N2CCN(CC(=O)[O-])CCN(CC(=O)[O-])CCN(CC(=O)[O-])CC2)cc1.[Gd+3] [Example 27, gadolinium 2,2′,2″-{10-[(1S)-1-carboxy-5-(4-ethoxyphenyl)pentyl]-1,4,7,10-tetraazacyclo-dodecane-1,4,7-triyl}triacetate] | >9 | 284 % of RC1 | 93 | −0.41 | 24 % of RC1 | 96 | 69 % of RC1 | 98 |  | 
CCOCCOCCOCCOc1ccc(C[C@@H](C(=O)O)N2CCN(CC(=O)[O-])CCN(CC(=O)[O-])CCN(CC(=O)[O-])CC2)c(OCCOCCOCCOCC)c1.[Gd+3] [Example 40, gadolinium 2,2′,2″-{10-[(1S)-2-(2,4-bis {2-[2-(2-ethoxyethoxy)ethoxy]ethoxy}phenyl)-1-carboxyethyl]-1,4,7,10-tetraazacyclododecane-1,4,7-triyl}triacetate] |  |  |  | −1.43 |  |  | 20 % of RC1 | 88 | 7.3 | 5.4
CCOCCOCCOc1ccc(CCC[C@@H](C(=O)O)N2CCN([C@H](CO)C(=O)[O-])CCN([C@H](CO)C(=O)[O-])CCN([C@@H](CO)C(=O)[O-])CC2)cc1.[Gd+3] [Example 49, gadolinium (2R,2′R)-2,2′-{7-[(1S)-1-carboxy-4-{4-[2-(2-ethoxyethoxy)ethoxy]phenyl}butyl]-10-[(1S)-1-carboxylato-2-hydroxyethyl]-1,4,7,10-tetraazacyclododecane-1,4-diyl}bis(3-hydroxypropanoate)] | >18 |  | 71 |  |  | 94 |  |  |  | 
CCOCCOCCOc1ccc(CCC[C@@H](C(=O)O)N2CCN([C@H](CO)C(=O)[O-])CCN([C@@H](CO)C(=O)[O-])CCN([C@@H](CO)C(=O)[O-])CC2)cc1.[Gd+3] [Example 50, gadolinium (2S,2'S)-2,2′-{7-[(1S)-1-carboxy-4-{4-[2-(2-ethoxyethoxy)ethoxy]phenyl}butyl]-10-[(1R)-1-carboxylato-2-hydroxyethyl]-1,4,7,10-tetraazacyclododecane-1,4-diyl}bis(3-hydroxypropanoate)] | >19 |  | 84 |  |  | 93 |  |  |  | 
